Data taken from patent US8658604B2, “Template-fixed beta-hairpin peptidomimetics with protease inhibitory activity” (Polyphor Ltd, priority 2005, dated 2014).
pIC50: −log10 of the molar value. Where two headings read alike, the source gives them in different places. Where a SMILES comes first, the peptide text is derived from it.

How the values were obtained:
[1] = target: T1, Trypsin, from human pancreas (Homo sapiens, UniProt P07477)
Chymase, from human skin [2] = target: T2, Chymase, from human skin (Homo sapiens, UniProt P23946)
T2 sequence (P23946 22-247): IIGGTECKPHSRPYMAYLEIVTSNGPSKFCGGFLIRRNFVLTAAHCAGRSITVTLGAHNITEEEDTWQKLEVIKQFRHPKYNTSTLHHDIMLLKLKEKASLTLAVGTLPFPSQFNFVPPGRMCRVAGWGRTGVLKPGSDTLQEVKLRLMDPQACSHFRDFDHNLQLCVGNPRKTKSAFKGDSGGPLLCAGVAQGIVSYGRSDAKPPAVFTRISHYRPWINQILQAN

[3] = target: T3, Chymotrypsin, from human pancreas (Homo sapiens, UniProt P17538)
T3 sequence (P17538 19-263): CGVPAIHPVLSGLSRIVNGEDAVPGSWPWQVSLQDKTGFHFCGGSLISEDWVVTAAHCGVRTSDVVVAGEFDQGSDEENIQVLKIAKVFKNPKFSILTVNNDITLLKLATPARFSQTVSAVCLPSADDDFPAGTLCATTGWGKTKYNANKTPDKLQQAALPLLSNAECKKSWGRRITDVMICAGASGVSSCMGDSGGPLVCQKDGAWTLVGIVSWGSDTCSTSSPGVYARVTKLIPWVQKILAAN

[4] = target: T4, Elastase from human neutrophils (Homo sapiens, UniProt P08246); assay: Enzymatic assay, elastase
T4 sequence (P08246 30-267): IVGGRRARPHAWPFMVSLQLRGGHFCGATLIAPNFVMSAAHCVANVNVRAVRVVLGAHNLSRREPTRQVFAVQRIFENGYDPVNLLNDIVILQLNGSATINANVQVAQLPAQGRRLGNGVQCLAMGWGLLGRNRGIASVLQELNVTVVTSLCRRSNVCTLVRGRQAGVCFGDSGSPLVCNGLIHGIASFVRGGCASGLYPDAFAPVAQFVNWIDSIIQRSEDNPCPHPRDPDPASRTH

[5] = target: T5, CathepsinG, from human neutrophils (Homo sapiens, UniProt P08311); assay: Enzymatic assay, cathepsin G; conditions: Cathepsin G IC50
T5 sequence (P08311 21-244): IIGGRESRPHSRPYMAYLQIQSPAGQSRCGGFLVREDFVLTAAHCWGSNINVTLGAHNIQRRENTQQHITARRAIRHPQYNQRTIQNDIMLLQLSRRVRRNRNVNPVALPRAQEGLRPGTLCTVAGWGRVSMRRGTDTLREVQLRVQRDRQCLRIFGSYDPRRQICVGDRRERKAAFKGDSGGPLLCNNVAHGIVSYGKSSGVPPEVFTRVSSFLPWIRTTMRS

[6] = type: in vitro ADME; conditions: 10 µM
Procedure: 405 μl of plasma/albumin solution were placed in a polypropylene (PP) tube and spiked with 45 μl of compound from a […] solution B, derived from 135 μl of PBS and 15 μl of 1 mM peptide in PBS, pH 7.4. 150 μl aliquots were transferred into individual wells of the 10 kDa filter plate (Millipore MAPPB 1010 Biomax membrane). For “0 minutes controls”: 270 μl of PBS were placed in a PP tube and 30 μl of stock solution B was added and vortexed. 150 μl of control solution were placed into one well of the filter plate and served as “filtered control”.
Further 150 μl of control solution were placed directly into a receiver well (reserved for filtrate) and served as “not-filtered control”. The entire plate including evaporation lid was incubated for 60 min at 37° C. Plasma samples (rat plasma: Harlan Sera lab UK, human plasma: Blutspendezentrum Zürich) were centrifuged at least for 2 h at 4300 rpm (3500 g) and 15° C. in order to yield 100 filtrate. For “serum albumin”-samples (freshly prepared human albumin: Sigma A-4327, rat albumin: Sigma A-6272, all at 40 mg/ml concentration in PBS) approximately 1 hour of centrifugation was sufficient. The filtrates in the receiver PP plate were analysed by LC/MS as follower follows: Column: Jupiter C18 (Phenomenex), mobile phases: (A) 0.1% formic acid in water and (B) acetonitrile, gradient: 5%-100% (B) in 2 minutes, electrospray ionization, MRM detection (triple quadrupole). The peak areas were determined and triplicate values were averaged. The binding was expressed in percent of the (filtered and not-filtered time point 0 min) control 1 and 2 by: 100−(100×T60/T0). The average from these values was then calculated.

[7] = Pharmacokinetic study after single oral (gavage) and intravenous administration in rats; conditions: rat
Procedure: 2.6. Pharmacokinetic Study (PK)
Pharmacokinetic Study after Single Oral (Gavage) and Intravenous Administration in Rats
Blood samples (approx. 0.24 ml) were taken following the schedule below at different time points into heparinized tubes by automated blood sampling using the DiLab AccuSampler. When a problem occurred during automated blood sampling, blood was sampled by retro-orbital bleeding under light isoflurane anesthesia. Samples were taken at the following time points: 0, 5 min (only i.v.), 15, 30 min and 1, 2, 4, 8, 16, 24 and 36 (only p.o.) hours and added to heparinized tubes. Plasma was removed from pelleted cells upon centrifugation and frozen at −80° C. prior to HPLC-MS analysis.
Preparation of the Plasma Calibration Samples
“Blank” rat plasma from untreated animals was used. […] The OASIS® HLB cartridges were conditioned with 1 ml of methanol and then with 1 ml of 1% NH3 in water. Samples were then diluted with 400 μl of 1% NH3 in water and loaded. The plate was washed with 1 ml of methanol/1% NH3 in water 5/95. Elution was performed using 1 ml of 0.1% TFA in methanol.
The plate containing eluates was introduced into the concentrator system and taken to dryness. The residues were dissolved in 100 μl of formic acid 0.1%/acetonitrile, 95/5 (v/v) and analysed in the HPLC/MS on a reverse phase analytical column (Jupiter C18, 50×2.0 mm, 5 μm, Phenomenex), using gradient elution (mobile phases A: 0.1% formic acid in water, B: Acetonitrile; from 5% B to 100% B in 2 min.).
Preparation of Plasma Samples
From each sample 100 μl of plasma were taken for the extraction. If the volume was less than 100 μl the appropriate amount of “blank” mouse plasma was added in order to keep the matrix identical to the calibration curve. Samples were then spiked with IS and processed as described for the calibration curve.
Pharmacokinetic Evaluation
The area under the curve AUC was calculated by the linear trapezoidal rule. AUC(t-∞) was estimated as Ct/b (b: elimination rate constant). […] the sum of AUC(0-t) and AUC(t-∞). Elimination half-life was calculated by the linear regression on at least three data points during the elimination phase. The time intervals selected for the half-life determinations were evaluated by the correlation coefficient (r^2), which should be at least above 0.85 and most optimally above 0.96. In case of i.v. administration the initial concentration at tzero was determined by extrapolation of the curve through the first two time points.

[8] = target: T1, Trypsin, from human pancreas; assay: Enzymatic assay, trypsin; conditions: at 100 μM
Chymase, from human skin [9] = target: T2, Chymase, from human skin; assay: Enzymatic assay, chymase
[10] = target: T6, Thrombin, from Human Plasma (Homo sapiens, UniProt P00734); assay: Enzymatic assay, thrombin
[11] = test system: Tryptase, from human lung; assay: Enzymatic assay, tryptase; conditions: at 100 μM
[12] = target: Urokinase from human urine (Homo sapiens, UniProt P00749); assay: Enzymatic assay, urokinase
[13] = target: T3, Chymotrypsin, from human pancreas; assay: Enzymatic assay, chymotrypsin
[14] = target: T7, Coagulation Factor Xa, from uman plasma (Homo sapiens, UniProt P00742); assay: Enzymatic assay, coagulation factor Xa
T7 sequence (P00742 235-488 limits assumed): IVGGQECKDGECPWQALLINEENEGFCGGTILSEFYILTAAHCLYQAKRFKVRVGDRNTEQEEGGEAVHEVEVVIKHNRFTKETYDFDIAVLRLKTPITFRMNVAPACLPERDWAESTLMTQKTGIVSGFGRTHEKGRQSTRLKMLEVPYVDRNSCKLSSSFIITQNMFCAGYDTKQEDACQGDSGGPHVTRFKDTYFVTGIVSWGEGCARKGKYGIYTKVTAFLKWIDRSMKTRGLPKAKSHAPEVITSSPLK
T7 sequence (P00742 41-179 limits assumed): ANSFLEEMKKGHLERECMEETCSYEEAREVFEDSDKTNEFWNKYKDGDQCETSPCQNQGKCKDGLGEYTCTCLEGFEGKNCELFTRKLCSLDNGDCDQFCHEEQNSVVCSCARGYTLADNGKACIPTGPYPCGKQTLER

HELA cells (Acc57) = assay: Cytotoxicity assay (MTT reduction), HELA cells; type: cell-based; conditions: Hela cells
Method in brief: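 HeLa cells were grown for 24 h, then exposed to peptides at 12.5, 25 and 50 μM in triplicate for 48 h at 37 °C. MTT reduction was read at 595 nm and growth % calculated relative to time-zero wells. LC50 interpolated by linear trend at −50% growth, GI50 at 50%.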

[15] = target: T5, CathepsinG, from human neutrophils
[16] = target: T6, Thrombin, from Human Plasma
[17] = target: T7, Coagulation Factor Xa, from uman plasma

CC[C@H](C)[C@@H]1NC(=O)[C@@H]2CCCN2C(=O)[C@@H]2CCCN2C(=O)[C@H](CCC(=O)O)NC(=O)[C@H](CO)NC(=O)[C@H](CCCCN)NC(=O)[C@H]([C@@H](C)O)NC(=O)[C@@H]2CSSC[C@H](NC1=O)C(=O)N[C@@H](CO)C(=O)N1CCC[C@@H]1C(=O)N1CCC[C@H]1C(=O)N[C@@H](Cc1ccccc1)C(=O)N2 [Ex. 21] (HELM PEPTIDE1{F.C.T.K.S.E.P.P.I.C.S.[dP].P}$PEPTIDE1,PEPTIDE1,2:R3-10:R3|PEPTIDE1,PEPTIDE1,1:R1-13:R2$$$V2.0)
Trypsin at 100 μM % [1]: 95.6% | Chymase at 100 μM % (Chymase, from human skin [2]): 5% | Chymotrypsin at 100 μM % [3]: 2.6% | pIC50 ([4]; Elastase IC50): 7.79 | pIC50 [5]: 7.01

CC[C@H](C)[C@@H]1NC(=O)[C@@H]2CCCN2C(=O)[C@@H]2CCCN2C(=O)[C@H](CC(=O)O)NC(=O)[C@H](CO)NC(=O)[C@H](CCCCN)NC(=O)[C@H]([C@@H](C)O)NC(=O)[C@@H]2CSSC[C@H](NC1=O)C(=O)N[C@@H](Cc1ccccc1)C(=O)N1CCC[C@@H]1C(=O)N1CCC[C@H]1C(=O)N[C@@H](CCCNC(=N)N)C(=O)N2 [Ex. 75] (HELM PEPTIDE1{R.C.T.K.S.D.P.P.I.C.F.[dP].P}$PEPTIDE1,PEPTIDE1,2:R3-10:R3|PEPTIDE1,PEPTIDE1,1:R1-13:R2$$$V2.0)
Stability human Plasma t1/2 [6]: 5 h | Stability rat Plasma t1/2 [6]: 5 h | half-life ([7]; male, Wistar, in vivo, iv, 5 mg/kg): 0.5 h | level at 0.25 h ([7]; male, Wistar, iv, 5 mg/kg): 5770 ng/mL | level at 0.5 h ([7]; male, Wistar, iv, 5 mg/kg): 3460 ng/mL | level at 4 h ([7]; male, Wistar, iv, 5 mg/kg): 18 ng/mL | Cmax ([7]; male, Wistar, po): 46 ng/mL | Vd (apparent distribution volume) ([7]; male, Wistar, po, 50 mg/kg): 1.008 L/kg | level at 4 h ([7]; male, Wistar, po, 50 mg/kg): 24 ng/mL | apparent distribution volume after oral administration, fold higher than after i.v. [7]: about 1.8 fold | % absorbed (F) (percentage of normalized AUC0-∞ po. against normalized AUC0-∞ i.v.) ([7]; 5 mg/kg): 100% | % absorbed (F) (percentage of normalized AUC0-∞ po. against normalized AUC0-∞ i.v.) ([7]; 50 mg/kg): 1.3% | Cmax norm ([7]; iv, 5 mg/kg): 0.08 ng/mL | initial distribution volume ([7]; iv, 5 mg/kg): 355 mL/kg | Cmax norm ([7]; po, 50 mg/kg): 0.25 ng/mL | Trypsin at 100 μM % [8]: 92.6% | Chymase at 100 μM % (Chymase, from human skin [9]): 0% | Elastase at 100 μM % ([4]; at 100 μM (stated in cell instead of IC50)): 69.1 at % | Thrombin at 100 μM % [10]: 1.1% | Tryptase at 100 μM % [11]: 0% | Urokinase at 100 μM % [12]: 5.7% | pIC50 [5]: 7.07 | Chymotrypsin at 100 μM % ([13]; at 100 μM): 7.8 at 100 μM % | FXa at 100 μM % [14]: 5.7%

CCCCCCCC[C@@H]1NC(=O)[C@H](CO)NC(=O)[C@H](C)NC(=O)[C@H]([C@@H](C)O)NC(=O)[C@@H]2CSSC[C@H](NC(=O)[C@H](CCC(N)=O)NC(=O)[C@@H]3CCCN3C(=O)[C@@H]3CCCN3C1=O)C(=O)N[C@@H](Cc1ccc(O)cc1)C(=O)N1CCC[C@@H]1C(=O)N1CCC[C@H]1C(=O)N[C@@H](CCCC)C(=O)N2 [Ex. 81] (HELM PEPTIDE1{[Nle].C.T.A.S.[CCCCCCCC[C@H](N[*:1])C(=O)[*:2]].P.P.Q.C.Y.[dP].P}$PEPTIDE1,PEPTIDE1,2:R3-10:R3|PEPTIDE1,PEPTIDE1,1:R1-13:R2$$$V2.0)
Cytotoxicity LC50/GI50 Hela cells (HELA cells (Acc57)): 58000 nM | Cathepsin G at 100 μM % [15]: 61.3 at 100% | Thrombin at 100 μM % [16]: 13.1% | FXa at 100 μM % [17]: 8.7% | pIC50 ([4]; Elastase IC50): 7.55 | pIC50 [13]: 4.00

CCCC[C@@H]1NC(=O)[C@@H]2CCCN2C(=O)[C@@H](C)NC(=O)[C@H](Cc2ccc(O)cc2)NC(=O)[C@@H]2CSSC[C@H](NC1=O)C(=O)N[C@@H]([C@@H](C)O)C(=O)N[C@@H](C)C(=O)N[C@@H](CO)C(=O)N[C@@H]([C@@H](C)CC)C(=O)N1CCC[C@H]1C(=O)N1CCC[C@H]1C(=O)N[C@@H](CCC(N)=O)C(=O)N2 [Ex. 130] (HELM PEPTIDE1{[Nle].C.T.A.S.I.P.P.Q.C.Y.[dA].P}$PEPTIDE1,PEPTIDE1,2:R3-10:R3|PEPTIDE1,PEPTIDE1,1:R1-13:R2$$$V2.0)
Chymase at 100 μM % (Chymase, from human skin [2]): <4000% | pIC50 ([4]; Elastase IC50): 7.54

CCCC[C@@H]1NC(=O)[C@@H]2CCCN2C(=O)[C@H]2CCCN2C(=O)[C@H](CCC(N)=O)NC(=O)[C@@H]2CSSC[C@H](NC1=O)C(=O)N[C@@H]([C@@H](C)O)C(=O)N[C@@H](C)C(=O)N[C@@H](CO)C(=O)N[C@@H]([C@@H](C)CC)C(=O)N1CCC[C@H]1C(=O)N1CCC[C@H]1C(=O)N[C@@H](CCC(N)=O)C(=O)N2 [Ex. 131] (HELM PEPTIDE1{[Nle].C.T.A.S.I.P.P.Q.C.Q.[dP].P}$PEPTIDE1,PEPTIDE1,2:R3-10:R3|PEPTIDE1,PEPTIDE1,1:R1-13:R2$$$V2.0)
Trypsin at 100 μM % [1]: 0% | pIC50 ([4]; read-out: Elastase IC50): 7.55 | pIC50 [5]: 7.35
